Experimental data taken from paper PMC11932207, “Regulating AMPA Receptors with Isoxazole-4-Carboxamide Derivatives: An Electrophysiological Study” (Journal of Xenobiotics, 2025).
Where two headings read alike, the source gives them in different places.

Tests used:
Assay type in all cases: cell-based
GluA2 = target: T1, GluA2 (Rattus norvegicus, UniProt P19491); test: Whole-cell patch clamp recordings of homomeric GluA2 AMPA receptor currents and kinetics in transfected HEK293t cells; conditions: for Amplitude (peak whole-cell current in presence of compound): 16 µM compound co-applied with agonist, HEK293t, −60 mV, pH 7.4, 22 °C; for Amplitude (peak whole-cell current in presence of compound) / A/AI (amplitude ratio, glutamate alone / with compound) / t deact (weighted deactivation time constant) / t des (weighted desensitization time constant) / Amplitude, applying glutamate alone after compound: mean ± SD; for Amplitude (peak whole-cell current in presence of compound) / A/AI (amplitude ratio, glutamate alone / with compound) / Amplitude, applying glutamate alone after compound: n = 10; for A/AI (amplitude ratio, glutamate alone / with compound): 16 µM compound; for t deact (weighted deactivation time constant): 10 mM glutamate for 1 ms; for t deact (weighted deactivation time constant) / t des (weighted desensitization time constant): with compound; for t des (weighted desensitization time constant): 10 mM glutamate for 500 ms; for Amplitude, applying glutamate alone after compound: glutamate alone after the compound; for Effect on deactivation kinetics (τdeac), in words / Effect on desensitization kinetics (τdes), in words: versus glutamate alone, one-way ANOVA
T1 construct: expressed in transfected cells; host or cells: HEK293T (HEK293) cells, transient co-transfection with a separate EGFP vector
From the text: (§1) The AMPA receptor subunits utilized in this study were of the flip isoform. The flip variant of the GluA2 subunit was originally provided by S. F. Heinemann (Salk Institute, La Jolla, CA, USA) in a pBlueScript plasmid. This plasmid was subsequently sub-cloned into a pRK vector to enable expression in HEK293 cells, which were sourced from Sigma, Germany. Additionally, the unedited version of GluA2 (R607Qjj, flip isoform) and enhanced green fluorescent protein (EGFP), both contained in pRK5 vectors, were generously supplied by P. H. Seeburg (Max Planck Institute for Medical Research, Heidelberg, Germany). Chemical-mediated ways induced transfection. GluA2 homomers were expressed into HEK293 cells by the co-transfection of 1 μg GluA2 plasmid with an equal amount of GFP expression vectors (1:1 ratio) into the cells. In addition, co-transfection was conducted for heteromeric GluA2/3 subunits at a ratio of 1:1.2 for optimum expression. For post-transfection experiments, cells were plated in 10% fetal calf serum and antibiotics in DMEM in Petri plates. These cultures were maintained under carefully controlled conditions—37 °C and 5% CO2 within a humidified incubator. The selection of cells for recordings was based on fluorescence intensity. Highly GFP-positive cells were identified and isolated for further analysis, ensuring precise targeting of transfected populations.
(§2) Whole-cell patch clamp recordings were performed on HEK293t cells 36–48 h after transfection. Experiments were conducted at 22 °C, maintaining a holding potential of −60 mV, using an Integrated Patch Amplifier (IPA) from Sutter Instruments (Novato, CA, USA). Data acquisition was managed with SutterPatch Software v. 1.1.1 (Sutter Instruments), employing a sampling rate of 10 kHz and setting the low-pass filter at 2 kHz. […] The external solution contained 150 mM NaCl, 2.8 mM KCl, 0.5 mM MgCl2, 2 mM CaCl2, and 10 mM HEPES, adjusted to a pH of 7.4 using NaOH. The internal pipette solution was composed of 110 mM CsF, 30 mM CsCl, 4 mM NaCl, 0.5 mM CaCl2, 10 mM trypsin-EDTA solution B (0.25%), 0.05% EDTA, and 10 mM HEPES, with the pH adjusted to 7.2 using CsOH.
(§3) A dual-barrel glass pipette (theta tube) was employed for the rapid delivery of glutamate and other solutions. The theta tube was attached to a high-speed piezoelectric solution exchange system (Automate Scientific, Berkeley, CA, USA). To assess the efficiency of solution exchange, open-tip potentials were measured by applying solutions with different ionic compositions after the patch was expelled from the pipette. The time required for a 10–90% change in the solution was generally less than […].
(§4) Data analysis was performed with Igor Pro8.04 software (Wave Metrics, Inc., Portland, OR, USA). AMPA receptor deactivation and desensitization kinetics were measured by applying 10 mM glutamate for 1 ms and 500 ms, respectively. The currents from the AMPA receptor were fitted to a double-exponential model to quantify deactivation and desensitization time constants measured from the double-exponential fits. The weighted tau (τw) is calculated as: τw = (τf × af) + (τs × as), where τf and τs are the time constants of fast and slow exponential components and af and as represent their relative amplitudes.
(§5) Data are presented as the mean ± standard deviation (SD). The total number of HEK293 cells engaged was n = 10. The experimental groups were compared to the wild type using a one-way analysis of variance (ANOVA). Statistical significance was assessed using p values: p < 0.05 (*) indicated significance, p < 0.01 (**) indicated high significance, and p < 0.001 (***) indicated very high significance. The value “ns” indicates non-significance. Concentration–response relationships were modeled using the Hill equation with the resulting combined plots via GraphPad Prism software (version 6.01, GraphPad Software). The data presented are the means from 3–4 experimental replicates. […]

GluN1a/2A = target: T2, GluN1a/2A (Homo sapiens, UniProt Q05586+Q12879); test: Selectivity: whole-cell normalized peak current of NMDA receptor GluN1a/2A; conditions: 16 µM compound, HEK293t, −60 mV
T2 construct: expressed in transfected cells; host or cells: HEK293t cells
Description: (§6) To evaluate the selectivity of CIC-1 and CIC-2 derivatives, their effects on GluN1a/2A and GluN1a/2B of the NMDA receptors were tested. The normalized peak current responses of the subunits alone and with CIC-1 and CIC-2 were determined (Figure 4).
(§7) Figure 4 The inhibitory actions of Isoxazole-4-carboxamide derivatives on the whole-cell currents mediated by GluA2, GluA2/3 AMPA receptor subtypes and GluN1a/2A, […] receptor subtypes. (a) represents data for CIC-1 and CIC-2 compounds. AMPA- and NMDA-induced currents (black bars) are then compared to currents recorded in the presence of 16 µM CIC compounds (white bars). Panels (b–e) show representative traces of whole-cell current responses to a 1 ms administration of 10 mM glutamate for the subunits. The traces show normalized responses for glutamate alone (black) and glutamate in combination with CIC compounds (color-coded). The recording was performed in HEK293t cells at −60 mV, pH 7.4, and 22 °C. Data present mean ± SD from 3–4 different experiments. *** p < 0.001; and “ns” indicates not significant.

GluN1a/2B = target: T3, GluN1a/2B (Homo sapiens, UniProt Q05586+Q13224); test: Selectivity: whole-cell normalized peak current of NMDA receptor GluN1a/2B; conditions: 16 µM compound, HEK293t, −60 mV
T3 construct: expressed in transfected cells; host or cells: HEK293t cells
Description: as §6, §7

GluA2/3 = target: T4, GluA2/3 (UniProt P19491+P42263); test: Whole-cell patch clamp recordings of heteromeric GluA2/3 AMPA receptor currents and kinetics in transfected HEK293t cells; conditions: for Amplitude (peak whole-cell current in presence of compound): 16 µM compound co-applied with agonist, HEK293t, −60 mV, pH 7.4, 22 °C; for Amplitude (peak whole-cell current in presence of compound) / A/AI (amplitude ratio, glutamate alone / with compound) / t deact (weighted deactivation time constant) / t des (weighted desensitization time constant) / Amplitude, applying glutamate alone after compound: mean ± SD; for Amplitude (peak whole-cell current in presence of compound) / A/AI (amplitude ratio, glutamate alone / with compound) / Amplitude, applying glutamate alone after compound: n = 10; for A/AI (amplitude ratio, glutamate alone / with compound): 16 µM compound; for t deact (weighted deactivation time constant): 10 mM glutamate for 1 ms; for t deact (weighted deactivation time constant) / t des (weighted desensitization time constant): with compound; for t des (weighted desensitization time constant): 10 mM glutamate for 500 ms; for Amplitude, applying glutamate alone after compound: glutamate alone after the compound; for Effect on deactivation kinetics (τdeac), in words / Effect on desensitization kinetics (τdes), in words: versus glutamate alone, one-way ANOVA
T4 construct: expressed in transfected cells; host or cells: HEK293T (HEK293) cells, transient co-transfection
From the text: as §1, §2, §3, §4, §5

[1] = concentration–response fit, read-out: Log IC50 (converted)
[2] = inhibition of whole-cell peak current, concentration–response, Hill fit, read-out: IC50

T4 sequence (P19491 22-883 isoform P19491-2 limits assumed): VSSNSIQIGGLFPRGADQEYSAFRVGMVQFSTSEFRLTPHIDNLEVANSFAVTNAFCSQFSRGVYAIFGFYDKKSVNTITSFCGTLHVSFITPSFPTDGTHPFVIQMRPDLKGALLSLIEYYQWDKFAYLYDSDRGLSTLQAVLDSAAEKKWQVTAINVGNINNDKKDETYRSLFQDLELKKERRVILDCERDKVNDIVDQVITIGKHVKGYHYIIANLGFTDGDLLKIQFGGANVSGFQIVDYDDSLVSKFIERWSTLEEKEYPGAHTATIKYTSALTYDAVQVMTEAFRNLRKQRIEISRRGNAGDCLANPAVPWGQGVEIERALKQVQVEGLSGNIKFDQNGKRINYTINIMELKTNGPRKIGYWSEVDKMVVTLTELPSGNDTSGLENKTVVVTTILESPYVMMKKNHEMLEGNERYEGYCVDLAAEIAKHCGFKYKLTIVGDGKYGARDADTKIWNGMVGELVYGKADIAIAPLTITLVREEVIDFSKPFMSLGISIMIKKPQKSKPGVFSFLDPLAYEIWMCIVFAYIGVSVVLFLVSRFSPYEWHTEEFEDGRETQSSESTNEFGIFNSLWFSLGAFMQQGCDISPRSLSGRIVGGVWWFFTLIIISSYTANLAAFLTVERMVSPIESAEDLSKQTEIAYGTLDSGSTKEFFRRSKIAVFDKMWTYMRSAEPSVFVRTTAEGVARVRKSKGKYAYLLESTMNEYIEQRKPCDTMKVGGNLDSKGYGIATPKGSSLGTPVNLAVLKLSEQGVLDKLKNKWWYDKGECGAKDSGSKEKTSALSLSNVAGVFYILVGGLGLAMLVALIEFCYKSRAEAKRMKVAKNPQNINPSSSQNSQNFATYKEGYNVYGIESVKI
T4 sequence (P42263 29-894 isoform P42263-2 limits assumed): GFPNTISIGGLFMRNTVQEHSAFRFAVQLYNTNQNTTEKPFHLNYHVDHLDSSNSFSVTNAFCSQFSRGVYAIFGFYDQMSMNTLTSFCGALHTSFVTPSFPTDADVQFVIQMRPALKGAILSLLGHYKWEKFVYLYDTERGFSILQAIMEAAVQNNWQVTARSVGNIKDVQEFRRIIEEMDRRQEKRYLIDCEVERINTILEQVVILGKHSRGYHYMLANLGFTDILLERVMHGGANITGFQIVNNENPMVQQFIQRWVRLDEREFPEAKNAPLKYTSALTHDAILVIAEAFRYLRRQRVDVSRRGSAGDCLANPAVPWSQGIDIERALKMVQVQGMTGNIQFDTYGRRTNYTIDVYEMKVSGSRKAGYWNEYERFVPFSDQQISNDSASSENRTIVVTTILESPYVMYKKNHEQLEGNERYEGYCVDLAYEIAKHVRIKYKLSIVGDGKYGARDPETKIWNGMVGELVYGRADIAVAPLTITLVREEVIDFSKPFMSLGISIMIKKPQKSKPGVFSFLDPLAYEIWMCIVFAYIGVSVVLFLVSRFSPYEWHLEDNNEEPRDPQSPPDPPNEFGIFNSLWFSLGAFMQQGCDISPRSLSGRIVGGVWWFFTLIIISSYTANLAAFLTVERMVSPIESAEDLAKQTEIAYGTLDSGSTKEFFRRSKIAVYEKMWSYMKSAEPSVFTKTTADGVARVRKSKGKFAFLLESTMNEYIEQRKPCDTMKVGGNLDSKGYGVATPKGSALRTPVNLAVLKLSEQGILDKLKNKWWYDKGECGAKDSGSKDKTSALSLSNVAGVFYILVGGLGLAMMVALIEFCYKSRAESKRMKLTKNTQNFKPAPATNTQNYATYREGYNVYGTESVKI
T1 sequence (P19491 22-883 isoform P19491-2 limits assumed): as the sequence (P19491 22-883 isoform P19491-2 limits assumed) above
T3 sequence (Q13224 27-1484, other chains not shown): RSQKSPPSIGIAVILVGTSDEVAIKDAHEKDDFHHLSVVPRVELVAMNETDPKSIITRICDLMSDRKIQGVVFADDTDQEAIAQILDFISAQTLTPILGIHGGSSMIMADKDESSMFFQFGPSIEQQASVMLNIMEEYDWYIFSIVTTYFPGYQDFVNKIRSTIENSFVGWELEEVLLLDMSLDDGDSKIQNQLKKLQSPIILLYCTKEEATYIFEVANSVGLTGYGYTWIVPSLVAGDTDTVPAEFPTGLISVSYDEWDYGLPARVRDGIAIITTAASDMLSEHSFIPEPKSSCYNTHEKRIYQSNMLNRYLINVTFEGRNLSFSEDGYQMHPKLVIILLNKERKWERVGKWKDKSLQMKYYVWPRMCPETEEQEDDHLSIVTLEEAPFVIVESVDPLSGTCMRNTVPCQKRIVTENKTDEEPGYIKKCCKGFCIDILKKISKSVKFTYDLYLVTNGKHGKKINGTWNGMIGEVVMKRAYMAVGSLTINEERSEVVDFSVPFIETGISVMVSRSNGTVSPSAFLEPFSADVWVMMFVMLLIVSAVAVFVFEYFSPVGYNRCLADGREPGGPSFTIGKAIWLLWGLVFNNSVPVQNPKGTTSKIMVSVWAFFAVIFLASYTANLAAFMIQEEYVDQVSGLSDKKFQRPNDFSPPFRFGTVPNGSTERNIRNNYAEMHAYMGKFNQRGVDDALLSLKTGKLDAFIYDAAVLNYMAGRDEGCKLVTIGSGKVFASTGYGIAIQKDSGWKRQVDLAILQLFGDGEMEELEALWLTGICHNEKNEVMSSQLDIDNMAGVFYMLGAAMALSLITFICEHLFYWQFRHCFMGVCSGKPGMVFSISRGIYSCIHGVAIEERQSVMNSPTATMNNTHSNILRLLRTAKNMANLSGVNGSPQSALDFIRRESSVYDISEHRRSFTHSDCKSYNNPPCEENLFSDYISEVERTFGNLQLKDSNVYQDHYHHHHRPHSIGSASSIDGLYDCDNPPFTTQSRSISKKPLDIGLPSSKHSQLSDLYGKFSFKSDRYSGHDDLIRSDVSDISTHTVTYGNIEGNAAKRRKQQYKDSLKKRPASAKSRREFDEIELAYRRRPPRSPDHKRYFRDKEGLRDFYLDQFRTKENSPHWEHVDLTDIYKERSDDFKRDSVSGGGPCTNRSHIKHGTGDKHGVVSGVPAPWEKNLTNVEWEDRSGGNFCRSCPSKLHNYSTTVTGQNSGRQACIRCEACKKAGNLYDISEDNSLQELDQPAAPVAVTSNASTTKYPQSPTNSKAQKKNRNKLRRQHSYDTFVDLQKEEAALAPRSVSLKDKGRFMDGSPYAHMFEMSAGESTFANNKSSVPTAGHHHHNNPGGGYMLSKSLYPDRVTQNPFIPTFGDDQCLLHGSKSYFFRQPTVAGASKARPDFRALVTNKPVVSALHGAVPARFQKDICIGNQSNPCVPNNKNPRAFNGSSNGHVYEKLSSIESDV
T2 sequence (Q12879 23-1464, other chains not shown): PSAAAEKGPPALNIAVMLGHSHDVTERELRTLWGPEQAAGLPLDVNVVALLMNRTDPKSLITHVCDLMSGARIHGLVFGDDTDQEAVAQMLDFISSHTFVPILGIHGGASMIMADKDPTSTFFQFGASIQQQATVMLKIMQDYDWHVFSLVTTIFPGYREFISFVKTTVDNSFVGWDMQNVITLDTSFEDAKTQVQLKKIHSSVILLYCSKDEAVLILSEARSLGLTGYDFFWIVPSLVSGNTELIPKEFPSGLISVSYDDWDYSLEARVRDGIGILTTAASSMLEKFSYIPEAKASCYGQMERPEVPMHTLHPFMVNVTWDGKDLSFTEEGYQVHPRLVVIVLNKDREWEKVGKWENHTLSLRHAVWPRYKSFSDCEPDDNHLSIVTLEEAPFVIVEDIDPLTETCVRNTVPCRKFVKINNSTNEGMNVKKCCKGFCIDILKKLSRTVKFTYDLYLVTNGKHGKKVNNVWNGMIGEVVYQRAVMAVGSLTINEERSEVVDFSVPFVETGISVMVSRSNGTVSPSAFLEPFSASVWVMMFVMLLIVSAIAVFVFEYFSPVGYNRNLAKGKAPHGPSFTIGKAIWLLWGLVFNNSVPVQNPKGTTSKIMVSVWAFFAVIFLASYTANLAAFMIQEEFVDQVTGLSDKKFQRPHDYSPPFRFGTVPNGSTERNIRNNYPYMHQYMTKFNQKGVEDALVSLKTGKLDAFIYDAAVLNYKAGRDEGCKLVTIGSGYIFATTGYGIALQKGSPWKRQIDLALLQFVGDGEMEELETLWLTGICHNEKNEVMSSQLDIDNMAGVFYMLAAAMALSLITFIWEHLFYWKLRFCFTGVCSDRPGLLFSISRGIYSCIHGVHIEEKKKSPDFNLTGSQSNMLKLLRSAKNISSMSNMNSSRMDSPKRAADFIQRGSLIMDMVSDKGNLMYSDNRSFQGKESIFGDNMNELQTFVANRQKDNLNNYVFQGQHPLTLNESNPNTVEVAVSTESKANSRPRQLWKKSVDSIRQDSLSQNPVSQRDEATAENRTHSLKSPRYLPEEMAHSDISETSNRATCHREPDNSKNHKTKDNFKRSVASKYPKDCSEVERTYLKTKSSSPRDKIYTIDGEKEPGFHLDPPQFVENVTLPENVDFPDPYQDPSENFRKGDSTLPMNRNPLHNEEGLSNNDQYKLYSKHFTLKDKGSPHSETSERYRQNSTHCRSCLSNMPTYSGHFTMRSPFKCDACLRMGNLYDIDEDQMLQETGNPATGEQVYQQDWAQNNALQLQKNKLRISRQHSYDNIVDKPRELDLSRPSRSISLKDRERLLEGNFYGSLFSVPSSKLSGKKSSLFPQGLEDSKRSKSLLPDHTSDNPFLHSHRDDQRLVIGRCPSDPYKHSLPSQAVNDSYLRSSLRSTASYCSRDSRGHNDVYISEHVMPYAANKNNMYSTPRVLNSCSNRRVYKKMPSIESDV

Row | Amplitude (peak whole-cell current in presence of compound) (GluA2) [pA] | A/AI (amplitude ratio, glutamate alone / with compound) (GluA2) | t deact (weighted deactivation time constant) (GluA2) [ms] | IC50 (GluA2; [1]) [µM] | Amplitude, applying glutamate alone after compound (GluA2) [pA] | IC50 (GluA2; [2]) [µM] | Amplitude (peak whole-cell current in presence of compound) (GluA2/3) [pA] | A/AI (amplitude ratio, glutamate alone / with compound) (GluA2/3) | t deact (weighted deactivation time constant) (GluA2/3) [ms] | IC50 (GluA2/3; [1]) [µM] | Amplitude, applying glutamate alone after compound (GluA2/3) [pA] | IC50 (GluA2/3; [2]) [µM] | SMILES | t des (weighted desensitization time constant) (GluA2) [ms] | t des (weighted desensitization time constant) (GluA2/3) [ms] | Effect on deactivation kinetics (τdeac), in words (GluA2) | Effect on desensitization kinetics (τdes), in words (GluA2) | Effect on deactivation kinetics (τdeac), in words (GluA2/3) | Effect on desensitization kinetics (τdes), in words (GluA2/3) | also measured
1 | 156 ± 7 | 8.11±0.41 | 8.3 ± 0.3 | 3.02 | 1231±85 | 3.03 | 73 ± 5 | 8.02±0.49 | 8.1 ± 0.4 | 3.09 | 562±28 |  | CSc1ccc(NC(=O)c2c(-c3c(Cl)cccc3Cl)noc2C)cc1 [CIC-1, 3-(2,6-dichlorophenyl)-5-methyl-N-(4-(methylthio)phenyl)isoxazole-4-carboxamide] | 0.6 ± 0.1 | 0.7 ± 0.2 |  |  |  |  | Increase of deactivation time constant (τdeac) (GluA2; versus control): approximately 4 fold; Effect on normalized peak current (GluN1a/2A): statistically not significant; Effect on normalized peak current (GluN1a/2B): statistically not significant; Increase of deactivation time constant (τdeac) (GluA2/3; versus control): approximately 4 fold
2 | 417±47 | 3.04±0.13 | 2.7 ± 0.2 | 7.59 | 1237±195 | 7.54 | 162±36 | 3.01±0.14 | 2.8 ± 0.2 | 7.59 | 478±127 | 7.5 | Cc1onc(-c2c(Cl)cccc2Cl)c1C(=O)Nc1ccc(C(C)(C)C)cc1 [CIC-12, N-(4-(tert-butyl)phenyl)-3-(2,6-dichlorophenyl)-5-methylisoxazole-4-carboxamide] | 2.4 ± 0.1 | 2.3 ± 0.1 | did not elicit statistically significant changes | did not significantly alter desensitization kinetics | did not elicit statistically significant changes | did not significantly alter desensitization kinetics | 

The remaining lines, values behind:

Row | SMILES | Amplitude (peak whole-cell current in presence of compound) (GluA2) [pA] | A/AI (amplitude ratio, glutamate alone / with compound) (GluA2) | t deact (weighted deactivation time constant) (GluA2) [ms] | IC50 (GluA2; [1]) [µM] | Amplitude, applying glutamate alone after compound (GluA2) [pA] | IC50 (GluA2; [2]) [µM] | Amplitude (peak whole-cell current in presence of compound) (GluA2/3) [pA] | A/AI (amplitude ratio, glutamate alone / with compound) (GluA2/3) | t deact (weighted deactivation time constant) (GluA2/3) [ms] | IC50 (GluA2/3; [1]) [µM] | Amplitude, applying glutamate alone after compound (GluA2/3) [pA] | IC50 (GluA2/3; [2]) [µM] | t des (weighted desensitization time constant) (GluA2) [ms] | t des (weighted desensitization time constant) (GluA2/3) [ms] | Effect on deactivation kinetics (τdeac), in words (GluA2) | Effect on desensitization kinetics (τdes), in words (GluA2) | Effect on deactivation kinetics (τdeac), in words (GluA2/3) | Effect on desensitization kinetics (τdes), in words (GluA2/3) | also measured
3 | Cc1onc(-c2c(Cl)cccc2Cl)c1C(=O)Nc1ccc(-c2ccccc2)cc1 [CIC-9, N-([1,1′-biphenyl]-4-yl)-3-(2,6-dichlorophenyl)-5-methylisoxazole-4-carboxamide] |  | 4.10±0.18 | 4.6 ± 0.2 | 6.31 | 1226±158 | 6.3 | 124±19 | 4.01±0.19 | 4.5 ± 0.3 | 6.46 | 484±89 | 6.42 | 2.0 ± 0.1 | 2.0 ± 0.1 | statistically significant prolongation of τdeac | accelerated desensitization, although to a lesser degree | statistically significant prolongation of τdeac | accelerated desensitization, although to a lesser degree | 
4 | Cc1onc(-c2c(Cl)cccc2Cl)c1C(=O)Nc1ccc(OC(F)(F)F)cc1 [CIC-10, 3-(2,6-dichlorophenyl)-5-methyl-N-(4-(trifluoromethoxy)phenyl)isoxazole-4-carboxamide] | 328±35 | 3.90±0.16 | 4.4 ± 0.2 | 6.46 | 1249±188 | 6.51 | 128±29 | 3.86±0.18 | 4.3 ± 0.2 | 6.61 | 482±128 | 6.62 | 2.3 ± 0.1 | 2.5 ± 0.1 | statistically significant prolongation of τdeac | did not significantly alter desensitization kinetics | statistically significant prolongation of τdeac | did not significantly alter desensitization kinetics | 
5 | Cc1onc(-c2c(F)cccc2Cl)c1C(=O)Nc1ccc(OC(F)(F)F)cc1 [CIC-11, 3-(2-chloro-6-fluorophenyl)-5-methyl-N-(4-(trifluoromethoxy)phenyl)isoxazole-4-carboxamide] | 359±28 | 3.53±0.15 | 3.0 ± 0.2 | 7.08 | 1233±147 | 7.02 | 141±29 | 3.46±0.16 | 2.9 ± 0.2 | 7.08 | 476±112 | 7.13 |  | 2.3 ± 0.1 | did not elicit statistically significant changes | did not significantly alter desensitization kinetics | did not elicit statistically significant changes | did not significantly alter desensitization kinetics | 
